Source: article PMC10017709, “Structural basis of selective cannabinoid CB2 receptor activation” (Nature Communications, 2023)
Several values for one entry are separate records, joined by “and”; a condition that tells them apart may be missing. Equal values may be shown once.

Columns and labels:
CB2R-I110^3.29A = CB2R-I110^3.29A (Homo sapiens, UniProt P34972, I110A); experiment: [35S]GTPγS assay, CB2R I110A mutant; format: biochemical; conditions: I1103.29A, individual replicates
CB2R-L185^ECL2H = CB2R-L185^ECL2H (Homo sapiens, UniProt P34972, L185H); experiment: [35S]GTPγS assay, CB2R L185H mutant; format: biochemical; conditions: L185H mutant; at 10 µM compared to WT; read-out: Emax (%)
CB2R-L182^ECL2I = CB2R-L182^ECL2I (Homo sapiens, UniProt P34972, L182I); experiment: [35S]GTPγS assay, CB2R L182I mutant; format: biochemical; conditions: L182I mutant; at 10 µM compared to WT; read-out: Emax (%)
CB2R WT = CB2R WT (Homo sapiens, UniProt P34972); experiment: [3H]CP55,940 displacement assay, CB2R WT; format: binding; conditions: CB2R - WT, individual replicates
CB2R-I110^3.29L = CB2R-I110^3.29L (Homo sapiens, UniProt P34972, I110L); experiment: [3H]CP55,940 displacement assay, CB2R I110L mutant; format: binding; conditions: I1103.29L, individual replicates
CB2R-Quadruple^TM1,7 = CB2R-Quadruple^TM1,7 (Homo sapiens, UniProt P34972, C40S/K279T/K33Q/V36I); experiment: [3H]CP55,940 displacement assay, CB2R quadruple mutant; format: binding; conditions: QuadrupleTM1,7, individual replicates
hCB1R WT [1] = biological target: T1, hCB1R WT (Homo sapiens, UniProt P21554); experiment: [3H]CP55,940 displacement assay, CB1R WT; format: binding
CB1R-L359^6.51V [2] = biological target: T2, CB1R-L359^6.51V (Homo sapiens, UniProt P21554, L359V); experiment: [3H]CP55,940 displacement assay, CB1R L359V mutant; format: binding
CB1R I267ECL2L [3] = biological target: T3, CB1R I267ECL2L (Homo sapiens, UniProt P21554, I267L); experiment: [3H]CP55,940 displacement assay, CB1R I267L mutant; format: binding
CB1R D266ECL2E = biological target: T4, CB1R D266ECL2E (Homo sapiens, UniProt P21554, D266E); experiment: [3H]CP55,940 displacement assay, CB1R D266E mutant; format: binding
T4 construct: The WT CB1R and CB2R genes were subcloned into vector pcDNA3.1; HA signal peptide (N); expressed in transfected cells; host or cells: HEK293T (transient, membrane homogenates)

CB1R QuadrupleTM1,7 = biological target: T5, CB1R QuadrupleTM1,7 (Homo sapiens, UniProt P21554, I119V/Q116K/S123C/T377K); experiment: [3H]CP55,940 displacement assay, CB1R quadruple mutant; format: binding
T5 construct: The WT CB1R and CB2R genes were subcloned into vector pcDNA3.1; HA signal peptide (N); expressed in transfected cells; host or cells: HEK293T (transient, membrane homogenates)

hCB1R WT [4] = biological target: T1, hCB1R WT; experiment: [35S]GTPγS G protein activation assay, CB1R WT; format: biochemical; conditions: CB1R WT; 10 µM agonist
CB1R-L359^6.51V [5] = biological target: T2, CB1R-L359^6.51V; experiment: [35S]GTPγS assay, CB1R L359V mutant; format: biochemical; conditions: CB1R L359V; 10 µM agonist
CB1R-H270^ECL2L = CB1R-H270^ECL2L (Homo sapiens, UniProt P21554, H270L); experiment: [35S]GTPγS assay, CB1R H270L mutant; format: biochemical; conditions: CB1R H270L; 10 µM agonist
CB1R I267ECL2L [6] = biological target: T3, CB1R I267ECL2L; experiment: [35S]GTPγS assay, CB1R I267L mutant; format: biochemical; conditions: CB1R I267L; 10 µM agonist

T1 sequence (P21554 whole entry): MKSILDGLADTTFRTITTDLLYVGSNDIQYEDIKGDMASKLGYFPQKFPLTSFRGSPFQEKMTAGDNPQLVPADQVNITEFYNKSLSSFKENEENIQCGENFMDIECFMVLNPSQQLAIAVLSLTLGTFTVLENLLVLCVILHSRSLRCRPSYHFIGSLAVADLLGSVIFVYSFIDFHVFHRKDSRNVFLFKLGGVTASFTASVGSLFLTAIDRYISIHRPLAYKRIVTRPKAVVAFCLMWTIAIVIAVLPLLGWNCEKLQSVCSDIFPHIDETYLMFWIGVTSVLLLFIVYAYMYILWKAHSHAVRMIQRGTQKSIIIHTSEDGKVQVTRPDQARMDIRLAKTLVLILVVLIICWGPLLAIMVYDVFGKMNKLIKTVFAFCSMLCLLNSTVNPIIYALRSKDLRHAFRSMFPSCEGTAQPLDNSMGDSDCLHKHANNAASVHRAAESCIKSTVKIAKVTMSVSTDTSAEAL
Chain of CB2R-Quadruple^TM1,7 (P34972 whole entry K33Q/V36I/C40S/K279T): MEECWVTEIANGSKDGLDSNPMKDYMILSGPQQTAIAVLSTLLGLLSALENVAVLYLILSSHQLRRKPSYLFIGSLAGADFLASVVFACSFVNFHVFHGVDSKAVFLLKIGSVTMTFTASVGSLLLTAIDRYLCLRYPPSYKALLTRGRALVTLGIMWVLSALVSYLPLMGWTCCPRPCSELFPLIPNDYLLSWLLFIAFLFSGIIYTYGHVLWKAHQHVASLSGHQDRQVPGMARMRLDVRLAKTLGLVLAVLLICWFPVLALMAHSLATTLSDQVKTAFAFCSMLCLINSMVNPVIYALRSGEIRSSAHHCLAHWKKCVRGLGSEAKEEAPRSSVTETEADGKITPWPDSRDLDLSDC
T4 sequence (P21554 whole entry D266E): as the sequence (P21554 whole entry) above, with D266E counted along it
Chain of CB2R WT (P34972 whole entry): as the sequence (P34972 whole entry K33Q/V36I/C40S/K279T) above, with Q33K, I36V, S40C, T279K counted along it
T3 sequence (P21554 whole entry I267L): as the sequence (P21554 whole entry) above, with I267L counted along it
T5 sequence (P21554 whole entry Q116K/I119V/S123C/T377K): as the sequence (P21554 whole entry) above, with Q116K, I119V, S123C, T377K counted along it
Chain of CB2R-I110^3.29L (P34972 whole entry I110L): as the sequence (P34972 whole entry K33Q/V36I/C40S/K279T) above, with Q33K, I36V, S40C, I110L, T279K counted along it
T2 sequence (P21554 whole entry L359V): as the sequence (P21554 whole entry) above, with L359V counted along it
Chain of CB2R-I110^3.29A (P34972 whole entry I110A): as the sequence (P34972 whole entry K33Q/V36I/C40S/K279T) above, with Q33K, I36V, S40C, I110A, T279K counted along it
Chain of CB1R-H270^ECL2L (P21554 whole entry H270L): as the sequence (P21554 whole entry) above, with H270L counted along it
Chain of CB2R-L182^ECL2I (P34972 whole entry L182I): as the sequence (P34972 whole entry K33Q/V36I/C40S/K279T) above, with Q33K, I36V, S40C, L182I, T279K counted along it
Chain of CB2R-L185^ECL2H (P34972 whole entry L185H): as the sequence (P34972 whole entry K33Q/V36I/C40S/K279T) above, with Q33K, I36V, S40C, L185H, T279K counted along it

Emax (CB2R-L185^ECL2H): 183 ± 16% | Emax (CB2R-L182^ECL2I): 17 ± 4% | percentage specific [3H]CP55,940 binding (CB2R WT; log [ligand] (M) -5): 6.97% and 9.11% and 6.37% | percentage specific [3H]CP55,940 binding (CB2R WT; log [ligand] (M) -6): 8.91% and 9.80% and 15.97% | percentage specific [3H]CP55,940 binding (CB2R WT; log [ligand] (M) -7): 35.26% and 29.34% and 24.47% | percentage specific [3H]CP55,940 binding (CB2R WT; log [ligand] (M) -8): 67.55% and 60.65% and 76.97% | percentage specific [3H]CP55,940 binding (CB2R WT; log [ligand] (M) -9): 110.80% and 85.34% and 106.79% | percentage specific [3H]CP55,940 binding (CB2R WT; log [ligand] (M) -10): 91.01% and 87.78% and 110.76% | percentage specific [3H]CP55,940 binding (CB2R-I110^3.29L; log [ligand] (M) -5): 4.49% and 2.95% and 7.70% | percentage specific [3H]CP55,940 binding (CB2R-I110^3.29L; log [ligand] (M) -6): 22.45% and 22.51% and 25.37% | percentage specific [3H]CP55,940 binding (CB2R-I110^3.29L; log [ligand] (M) -7): 63.92% and 66.51% and 68.51% | percentage specific [3H]CP55,940 binding (CB2R-I110^3.29L; log [ligand] (M) -8): 89.64% and 87.54% and 115.07% | percentage specific [3H]CP55,940 binding (CB2R-I110^3.29L; log [ligand] (M) -9): 93.11% and 90.99% and 98.90% | percentage specific [3H]CP55,940 binding (CB2R-I110^3.29L; log [ligand] (M) -10): 86.70% and 95.29% and 99.01% | percentage specific [3H]CP55,940 binding (CB2R-Quadruple^TM1,7; log [ligand] (M) -5): -3.75% and 13.92% and 33.90% | percentage specific [3H]CP55,940 binding (CB2R-Quadruple^TM1,7; log [ligand] (M) -6): 31.56% and 68.45% and 21.77% | percentage specific [3H]CP55,940 binding (CB2R-Quadruple^TM1,7; log [ligand] (M) -7): 107.34% and 102.91% and 64.85% | percentage specific [3H]CP55,940 binding (CB2R-Quadruple^TM1,7; log [ligand] (M) -8): 162.50% and 142.72% and 87.25% | percentage specific [3H]CP55,940 binding (CB2R-Quadruple^TM1,7; log [ligand] (M) -9): 116.72% and 143.53% and 100.93% | percentage specific [3H]CP55,940 binding (CB2R-Quadruple^TM1,7; log [ligand] (M) -10): 74.84% and 102.27% and 99.53% | Displacement (%) of [3H]CP55,940 (hCB1R WT [1]; CB1R WT, 10 µM compound): -19 ± 17% | Displacement (%) of [3H]CP55,940 (CB1R-L359^6.51V [2]; CB1R L359V, 10 µM compound): 18 ± 9% | Displacement (%) of [3H]CP55,940 (CB1R I267ECL2L [3]; CB1R I267L, 10 µM compound): -24 ± 17% | Displacement (%) of [3H]CP55,940 (CB1R D266ECL2E; CB1R D266E, 10 µM compound): 12 ± 7% | Displacement (%) of [3H]CP55,940 (CB1R QuadrupleTM1,7; CB1R Quadruple TM1,7, 10 µM compound): 0 ± 25% | Agonist-mediated activation (hCB1R WT [4]): 1.0 ± 0.0 fold over its basal | Agonist-mediated activation (CB1R-L359^6.51V [5]): 1.1 ± 0.1 fold over its basal | Agonist-mediated activation (CB1R-H270^ECL2L): 1.1 ± 0.0 fold over its basal | Agonist-mediated activation (CB1R I267ECL2L [6]): 0.9 ± 0.0 fold over its basal
Structure (SMILES): CC(C)(C)[C@@H](CO)NC(=O)c1nn(-c2c[n+]([O-])ccn2)c2c1C[C@@H]1C[C@H]21 [APD371]
[35S]GTPγS binding (CB2R-I110^3.29A; log [ligand] (M) -8): -18.83 percentage of WT and 1.40 percentage of WT and -5.80 percentage of WT and 9.14 percentage of WT | [35S]GTPγS binding (CB2R-I110^3.29A; log [ligand] (M) -9): -17.87 percentage of WT and 6.80 percentage of WT and -8.60 percentage of WT and -1.19 percentage of WT | [35S]GTPγS binding (CB2R-I110^3.29A; log [ligand] (M) -10): -16.57 percentage of WT and -10.00 percentage of WT and -2.40 percentage of WT and -10.68 percentage of WT | percentage specific [3H]CP55,940 binding (hCB1R WT [1]; CB1R - WT, 10 µM ligand, replicates 1-3): 104.41 percentage and 153.95 percentage and 99.24 percentage | percentage specific [3H]CP55,940 binding (CB1R-L359^6.51V [2]; CB1R L3596.51V, 10 µM ligand, replicates 1-3): 78.52 percentage and 68.29 percentage and 98.34 percentage | percentage specific [3H]CP55,940 binding (CB1R I267ECL2L [3]; CB1R I267ECL2L, 10 µM ligand, replicates 1-3): 153.09 percentage and 95.47 percentage and 123.57 percentage | percentage specific [3H]CP55,940 binding (CB1R D266ECL2E; CB1R D266ECL2E, 10 µM ligand, replicates 1-3): 74.46 percentage and 89.45 percentage and 99.44 percentage | percentage specific [3H]CP55,940 binding (CB1R QuadrupleTM1,7; CB1R QuadrupleTM1,7, 10 µM ligand, replicates 1-3): 125.90 percentage and 49.87 percentage and 125.34 percentage
